Laboratory results published in US7053122B2, “Therapeutic use of aryl amino acid derivatives” (Pfizer Inc, priority 2002, dated 2006).

Each compound was assayed on α2δ subunit derived from porcine brain tissue (assay: radioligand binding assay using [3H]gabapentin and the α2δ subunit). Conditions: [3H]gabapentin radioligand.
Excerpt: The biological activity of the compounds of the invention may be measured in a radioligand binding assay using [^3H]gabapentin and the α2δ subunit derived from porcine brain tissue (Gee N. S., Brown J. P., Dissanayake V. U. K., Offord J., Thurlow R., Woodruff G. N., J. Biol. Chem., 1996; 271:5776–5879). Results may be expressed in terms of μM or nM α2δ binding affinity.

Row | SMILES | α2δ binding affinity
1 | Cl.NCc1ccc(Cl)cc1C(=O)O [Example 1, 2-Aminomethyl-5-chloro-benzoic acid hydrochloride salt] | 100 nM
2 | Cl.NCc1cc(Cl)c(Cl)cc1C(=O)O [Example 2, 2-Aminomethyl-4,5-dichloro-benzoic acid hydrochloride salt] | 435 nM
3 | Cl.NCc1cccc(Cl)c1C(=O)O [Example 4, 2-Aminomethyl-6-chloro-benzoic acid hydrochloride salt] | 383 nM
4 | CC(N)c1ccccc1C(=O)O.Cl (centres unmarked) [Example 5, 2-(1-Amino-ethyl)-benzoic acid hydrochlorid salt] | 270 nM
5 | Cl.NCc1ccc(Cl)cc1-c1noc(=O)[nH]1 [Example 7, 3-(2-Aminomethyl-5-chloro-phenyl)-4-H-[1,2,4]loxadiazol-5-one hydrochloride salt] | 8000 nM
